{"source": "patent US10626081B2", "about": "“Farnesoid X receptor agonists and uses thereof” (Metacrine, Inc., priority 2015, dated 2020)", "data": [{"biological_target": "T1, FXR (Homo sapiens, UniProt Q96RI1)", "T1 construct": "expressed in transfected cells; host or cells: CV-1 cells", "T1 sequence (Q96RI1 1-486)": "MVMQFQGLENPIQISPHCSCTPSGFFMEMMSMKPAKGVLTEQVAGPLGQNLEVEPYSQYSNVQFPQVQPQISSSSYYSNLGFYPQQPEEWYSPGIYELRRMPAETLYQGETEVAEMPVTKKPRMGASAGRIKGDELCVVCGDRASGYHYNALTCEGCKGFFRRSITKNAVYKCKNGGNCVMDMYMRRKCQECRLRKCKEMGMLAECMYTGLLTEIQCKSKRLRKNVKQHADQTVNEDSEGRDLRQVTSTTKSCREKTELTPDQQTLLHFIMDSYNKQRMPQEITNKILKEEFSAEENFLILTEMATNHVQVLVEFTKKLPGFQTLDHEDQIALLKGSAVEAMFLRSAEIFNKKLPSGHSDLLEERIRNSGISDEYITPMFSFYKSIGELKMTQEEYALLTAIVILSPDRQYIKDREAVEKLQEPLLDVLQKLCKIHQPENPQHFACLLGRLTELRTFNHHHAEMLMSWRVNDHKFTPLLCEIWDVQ", "T1 sequence (P19793 1-462 partner)": "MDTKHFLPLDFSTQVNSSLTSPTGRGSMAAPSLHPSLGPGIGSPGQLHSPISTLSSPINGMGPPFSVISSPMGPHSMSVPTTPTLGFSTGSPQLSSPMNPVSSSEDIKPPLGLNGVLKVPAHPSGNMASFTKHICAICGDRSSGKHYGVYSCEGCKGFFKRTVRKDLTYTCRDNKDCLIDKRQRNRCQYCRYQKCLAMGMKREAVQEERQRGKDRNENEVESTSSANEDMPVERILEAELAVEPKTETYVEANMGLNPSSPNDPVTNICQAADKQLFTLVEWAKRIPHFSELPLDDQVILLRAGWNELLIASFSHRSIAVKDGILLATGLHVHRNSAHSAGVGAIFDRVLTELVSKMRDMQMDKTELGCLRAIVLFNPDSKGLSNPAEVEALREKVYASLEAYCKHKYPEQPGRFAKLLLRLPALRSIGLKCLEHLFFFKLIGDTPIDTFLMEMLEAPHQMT", "assay": "In Vitro FXR Assay (TK): TK-ECRE-luc reporter in transfected CV-1 cells", "assay_type": "cell-based", "settings": "CV-1 cells transfected with hFXR, hRXR, 18 h incubation, luminescence", "description": "Example B-2: In Vitro FXR Assay (TK)\nCV-1 cells were seeded at a density of 2,000,000 cells in a T175 flask with DMEM+10% charcoal double-stripped FBS and incubated at 37° C. in 5% CO2 for 18 h (O/N).\nAfter 18 h of incubation, the medium in the T175 flask was changed with fresh DMEM+10% charcoal super-stripped serum. In a polypropylene tube, 2500 μL OptiMEM (Life Technologies, Cat #31985-062) was combined with expression plasmids for hFXR, hRXR, TK-ECRE-luc and pCMX-YFP. The tube was then briefly vortexed and incubated at room temperature for 5 minutes. Transfection reagent (X-tremeGENE HP from Roche, Cat #06 366 236 001) was added to the OptiMEM/plasmid mixture vortexed and incubated at room temperature for 20 minutes. Following incubation, the transfection reagent/DNA mixture complex was added to cells in the T175 flask and the cells were incubated at 37° C. in 5% CO2 for 18 h (O/N).\nCompounds were serially diluted in DMSO and added to transfected CV-1 cells. The cells were then incubated for 18 hrs. The next day cells were lysed and examined for luminescence.", "units": {"EC50": "µM"}, "values": [{"compound": "COC(=O)/C=C/c1cccc(N(Cc2ccc(-c3cccc(S(C)(=O)=O)c3)cc2)C(=O)C2CCCCC2)c1", "note": "[62.8, (E)-Methyl 3-(3-(N-((3′-(methylsulfonyl)-[1,1′-biphenyl]-4-yl)methyl)cyclohexanecarboxamido)phenyl) acrylate]", "EC50": "> 10"}, {"compound": "COC(=O)/C=C/c1cccc(N(Cc2ccc(-c3ccc(N(C)C)cc3)cc2)C(=O)C2COCCO2)c1", "note": "(centres unmarked) [17.2, (E)-Methyl 3-(3-(N-((4′-(dimethylamino)-[1,1′-biphenyl]-4-yl)methyl)-1,4-dioxane-2-carboxamido)phenyl)acrylate]", "EC50": "1 to 10"}, {"compound": "COC(=O)/C=C/c1cccc(N(Cc2ccc(-c3cccc(C(=O)OC)c3)cc2)C(=O)C2CCCCC2)c1", "note": "[62.2, (E)-Methyl 4′-((N-(3-(3-methoxy-3-oxoprop-1-en-1-yl)phenyl)cyclohexanecarboxamido)methyl)-[1,1′-biphenyl]-3-carboxylate]", "EC50": "1 to 10"}, {"compound": "COCCOC(=O)/C=C/c1cccc(N(Cc2ccc(-c3ccc(N(C)C)cc3)cc2)C(=O)C2CCCCC2)c1", "note": "[86.3, (E)-2-Methoxyethyl 3-(3-(N-((4′-(dimethylamino)-[1,1′-biphenyl]-4-yl)methyl)cyclohexanecarboxamido)phenyl) acrylate]", "EC50": "1 to 10"}, {"compound": "COC(=O)/C=C/c1cc(C#N)cc(N(Cc2ccc(-c3ccc(N(C)C)cc3)cc2)C(=O)C2CCCCC2)c1", "note": "[86.9, (E)-Methyl 3-(3-cyano-5-(N-((4′-(dimethylamino)-[1,1′-biphenyl]-4-yl)methyl)cyclohexanecarboxamido)phenyl) acrylate]", "EC50": "1 to 10"}, {"compound": "COC(=O)/C=C/c1cccc(N(Cc2ccc(-c3ccc(N(C)C)cc3)cc2)C(=O)[C@@H]2CCC[C@H](O)C2)c1", "note": "(relative stereo) [13.27, cis-(E)-Methyl 3-(3-(N-((4′-(dimethylamino)-[1,1′-biphenyl]-4-yl)methyl)-3-hydroxycyclohexanecarboxamido)phenyl)acrylate]", "EC50": "≤ 1"}, {"compound": "COC(=O)/C=C/c1cccc(N(Cc2ccc(-c3ccc(N(C)C)cc3)cc2)C(=O)C2CCC(=O)CC2)c1", "note": "[compound 17, (E)-Methyl 3-(3-(N-((4′-(dimethylamino)-[1,1′-biphenyl]-4-yl)methyl)-4-oxocyclohexanecarboxamido)phenyl)acrylate]", "EC50": "≤ 1"}, {"compound": "COC(=O)/C=C/c1cccc(N(Cc2ccc(-c3ccc(N(C)C)cc3)cc2)C(=O)[C@@H]2CCC[C@@H](O)C2)c1", "note": "(relative stereo) [13.28, trans-(E)-Methyl 3-(3-(N-((4′-(dimethylamino)-[1,1′-biphenyl]-4-yl)methyl)-3-hydroxycyclohexanecarboxamido)phenyl)acrylate]", "EC50": "> 10"}, {"compound": "COC(=O)/C=C/c1cc(F)cc(N(Cc2ccc(-c3ccc(N(C)C)cc3)cc2)C(=O)C2CC3CCC2C3)c1", "note": "(centres unmarked) [13.5, (E)-Methyl 3-(3-(N-((4′-(dimethylamino)-[1,1′-biphenyl]-4-yl)methyl)bicyclo[2.2.1]heptane-2-carboxamido)-5-fluorophenyl)acrylate]", "EC50": "≤ 1"}, {"compound": "COC(=O)/C=C/c1cccc(N(Cc2ccc(-c3ccc(N(C)C)cc3)cc2)C(=O)C2CCC([S+](C)[O-])CC2)c1", "note": "(centres unmarked) [13.20, (E)-Methyl 3-(3-(N-((4′-(dimethylamino)-[1,1′-biphenyl]-4-yl)methyl)-4-(methylsulfinyl)cyclohexanecarboxamido)phenyl)acrylate]", "EC50": "1 to 10"}, {"compound": "COC(=O)/C=C/c1cccc(N(Cc2ccc(-c3ccc(N(C)C)cc3)cc2C#N)C(=O)C2CCCCC2)c1", "note": "[62.12, (E)-Methyl 3-(3-(N-((3-cyano-4′-(dimethylamino)-[1,1′-biphenyl]-4-yl)methyl)cyclohexanecarboxamido)phenyl) acrylate]", "EC50": "1 to 10"}, {"compound": "CN(C)c1ccc(-c2ccc(CN(C(=O)C3CCCCC3)c3cccc(/C=C/C(=O)OCC(F)(F)F)c3)cc2)cc1", "note": "[86.6, (E)-2,2,2-Trifluoroethyl 3-(3-(N-((4′-(dimethylamino)-[1,1′-biphenyl]-4-yl)methyl)cyclohexanecarboxamido)phenyl) acrylate]", "EC50": "1 to 10"}, {"compound": "CN(C)CCOC(=O)/C=C/c1cccc(N(Cc2ccc(-c3ccc(N(C)C)cc3)cc2)C(=O)C2CCCCC2)c1", "note": "[86.4, (E)-2-(Dimethylamino)ethyl 3-(3-(N-((4′-(dimethylamino)-[1,1′-biphenyl]-4-yl)methyl)cyclohexanecarboxamido)phenyl) acrylate]", "EC50": "> 10"}, {"compound": "COC(=O)/C=C/c1cccc(N(Cc2ccc(-c3ccc(N(C)C)cc3)cc2)C(=O)C(C)(C)CO)c1", "note": "[13.23, (E)-Methyl 3-(3-(N-((4′-(dimethylamino)-[1,1′-biphenyl]-4-yl)methyl)-3-hydroxy-2,2-dimethylpropanamido)phenyl)acrylate]", "EC50": "1 to 10"}, {"compound": "COC(=O)/C=C/c1cccc(N(Cc2ccc(-c3ccc(N(C)C)cc3)cc2)C(=O)[C@H]2CC[C@H](NC(C)=O)CC2)c1", "note": "[98.1, trans-(E)-Methyl 3-(3-(4-acetamido-N-((4′-(dimethylamino)-[1,1′-biphenyl]-4-yl)methyl)cyclohexanecarboxamido)phenyl)acrylate]", "EC50": "≤ 1"}, {"compound": "COC(=O)/C=C/c1cccc(N(Cc2ccc(-c3ccc4cnsc4c3)cc2)C(=O)C2CCCCC2)c1", "note": "[75.16, (E)-Methyl 3-(3-(N-(4-(benzo[d]isothiazol-6-yl)benzyl)cyclohexanecarboxamido)phenyl) acrylate]", "EC50": "1 to 10"}, {"compound": "COC(=O)/C=C/c1cccc(N(Cc2ccc(-c3ccc(OC)c(C)c3)cc2)C(=O)C2CCNCC2)c1", "note": "[62.15, (E)-Methyl 3-(3-(N-((4′-methoxy-3′-methyl-[1,1′-biphenyl]-4-yl)methyl)piperidine-4-carboxamido)phenyl)acrylate]", "EC50": "> 10"}, {"compound": "COC(=O)/C=C/c1cccc(N(Cc2ccc(-c3ccc(N(C)C)cc3)cc2)C(=O)C2CC[S+]([O-])CC2)c1", "note": "(centres unmarked) [13.19, (E)-Methyl 3-(3-(N-((4′-(dimethylamino)-[1,1′-biphenyl]-4-yl)methyl)-1-oxidotetrahydro-2H-thiopyran-4-carboxamido)phenyl)acrylate]", "EC50": "1 to 10"}, {"compound": "COC(=O)/C=C/c1cccc(N(Cc2ccc(-c3ccc(N(C)C)cc3)cc2)C(=O)[C@H]2CC[C@H](S(C)(=O)=O)CC2)c1", "note": "[13.15, trans-(E)-methyl 3-(3-(N-((4′-(dimethylamino)-[1,1′-biphenyl]-4-yl)methyl)-4-(methylsulfonyl)cyclohexanecarboxamido)phenyl)acrylate]", "EC50": "1 to 10"}, {"compound": "COC(=O)/C=C/c1cccc(N(Cc2ccc(-c3ccc(N(C)C)cc3)cc2)C(=O)c2ccc(F)c(F)c2)c1", "note": "[13.1, (E)-Methyl 3-(3-(N-((4′-(dimethylamino)-[1,1′-biphenyl]-4-yl)methyl)-3,4-difluorobenzamido)phenyl)acrylate]", "EC50": "1 to 10"}, {"compound": "COC(=O)/C=C/c1cccc(N(Cc2ccc(NCc3ccccc3)cc2)C(=O)C2CCCCC2)c1", "note": "[compound 102, (E)-Methyl 3-(3-(N-(4-(benzylamino)benzyl)cyclohexane-carboxamido)phenyl)acrylate]", "EC50": "1 to 10"}, {"compound": "COC(=O)/C=C/c1cccc(N(Cc2ccc(-c3ccc4oncc4c3)cc2)C(=O)C2CCCCC2)c1", "note": "[75.15, (E)-Methyl 3-(3-(N-(4-(benzo[d]isoxazol-5-yl)benzyl)cyclohexanecarboxamido)phenyl) acrylate]", "EC50": "> 10"}, {"compound": "COC(=O)/C=C/c1cc(OC)cc(N(Cc2ccc(-c3ccc(N(C)C)cc3)cc2)C(=O)C2CCCCC2)c1", "note": "[86.8, (E)-Methyl 3-(3-(N-((4′-(dimethylamino)-[1,1′-biphenyl]-4-yl)methyl)cyclohexanecarboxamido)-5-methoxyphenyl)acrylate]", "EC50": "1 to 10"}]}]}
